{"source": "patent US8471041B2", "about": "(priority 2010, dated 2013)", "key": {"physchem [1]": {"experiment": "physchem", "details": "water"}, "physchem [2]": {"experiment": "physchem", "details": "organic solvent or mixture"}}}
{"smiles": "O=C(CBr)N1CC([N+](=O)[O-])([N+](=O)[O-])C1", "note": "[ABDNAZ, N-(bromoacetyl)-3,3-dinitroazetidine]", "values": [{"measurement": "solubility", "setting": "physchem [1]", "result": "0.3 to 1.3", "unit": "mg/mL"}, {"measurement": "solubility", "setting": "physchem [2]", "result": "~30", "unit": "mg/mL"}]}
